Consider seven molecules from US20100227853A1, “INHIBITORS OF CYCLIC AMP PHOSPHODIESTERASES” (Trustees of Boston College, priority 2008, published 2010).

The subject of experiment [1] is PDE2A, PDE4A, PDE4B, Cgs2. Description: Parallel high throughput 5FOA growth screens of bioactive libraries. The format is cell-based, murine PDEs; yeast Cgs2. Conditions: 3,120 bioactive compounds, average 20 μM. How it is done: High throughput drug screens were carried out at the Broad Institute's Chemical Biology Program screening facility (Broad Institute, Cambridge, Mass.). Depending upon the strain, cultures were pregrown to exponential phase in EMM complete medium containing from 0.5 to 2.5 mM cAMP to repress fbp1-ura4 transcription. […] Starting cell concentrations ranged from 0.5×10^5 to 4×10^5 cells/ml depending on the screening strain. […] Other positive control dishes contained 5 mM cAMP in the 5FOA medium. Cultures were grown for 48 hours at 30° C., sealed in an airtight container with moist paper towels to prevent evaporation. Optical densities (OD600) of cultures were measured using a microplate reader. Bioinformatic analysis of the results to determine composite Z scores was performed as previously described^30, 31.

The target in another experiment is T1, PDE8A (Mus musculus, UniProt O88502).
T1 construct: targets used in the assays are full-length proteins (as opposed to simply the catalytic domain); expressed in transfected cells; host or cells: Schizosaccharomyces pombe, PDE gene integrated in place of cgs2 (strains CHP1141, DDP13)
T1 sequence (O88502 1-823): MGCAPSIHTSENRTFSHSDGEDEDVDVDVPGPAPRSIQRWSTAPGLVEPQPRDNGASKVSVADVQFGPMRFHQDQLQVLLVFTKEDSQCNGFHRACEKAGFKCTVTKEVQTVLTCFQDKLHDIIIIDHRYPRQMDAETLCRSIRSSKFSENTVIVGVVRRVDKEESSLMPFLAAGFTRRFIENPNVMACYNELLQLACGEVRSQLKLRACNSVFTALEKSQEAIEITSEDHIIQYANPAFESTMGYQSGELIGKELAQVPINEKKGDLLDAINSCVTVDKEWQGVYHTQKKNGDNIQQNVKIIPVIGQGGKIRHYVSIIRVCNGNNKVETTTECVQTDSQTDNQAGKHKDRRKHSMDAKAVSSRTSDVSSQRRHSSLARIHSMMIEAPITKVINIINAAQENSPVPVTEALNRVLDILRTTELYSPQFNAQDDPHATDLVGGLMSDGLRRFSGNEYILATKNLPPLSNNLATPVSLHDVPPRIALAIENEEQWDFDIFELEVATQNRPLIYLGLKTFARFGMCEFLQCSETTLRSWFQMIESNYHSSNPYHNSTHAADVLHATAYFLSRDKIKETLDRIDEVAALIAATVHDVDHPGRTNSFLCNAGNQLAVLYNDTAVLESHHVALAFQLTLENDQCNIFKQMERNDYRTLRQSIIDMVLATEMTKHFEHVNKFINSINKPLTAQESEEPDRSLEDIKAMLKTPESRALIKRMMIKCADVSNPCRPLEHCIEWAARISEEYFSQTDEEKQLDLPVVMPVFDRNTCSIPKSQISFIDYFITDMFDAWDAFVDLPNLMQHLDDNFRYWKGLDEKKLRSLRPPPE
Description: fbp1-lacZ β-galactosidase reporter assay, PDE8A strain. The format is cell-based, murine. As to the method: β-galactosidase assays and characterization of 5FOA-sensitivity were carried out as previously described^10. cAMP assays were performed on exponential phase cells grown in EMM complete medium (3% glucose), using the Assay Designs cAMP EIA kit, according to manufacturer's instructions (Assay Designs, Ann arbor, Mich.).
The effect of known PDE inhibitors on the expression of the fbp1-lacZ fusion in murine PDE-expressing strains was tested. […] For Table 4 β-galactosidase activity was determined from 3 to 4 independent exponential phase cultures. The average±SD represents specific activity per milligram of soluble protein.
A general note: In a reporter assay the amount or activity of a reporter protein is the signal.

The next experiment has as its target T2, PDE4D2-CAT (Homo sapiens, UniProt Q08499).
T2 construct: 86-413; made in house; host or cells: E. coli
Description: in vitro enzyme assay, catalytic fragment of PDE4D2 (residues 86-413). Type of experiment: biochemical.

For the next experiment, the target named is T3, PDE4A1 (Mus musculus, UniProt O89084).
T3 construct: targets used in the assays are full-length proteins (as opposed to simply the catalytic domain); expressed in transfected cells; host or cells: Schizosaccharomyces pombe, PDE gene integrated in place of cgs2
T3 sequence (O89084 1-610 isoform O89084-2): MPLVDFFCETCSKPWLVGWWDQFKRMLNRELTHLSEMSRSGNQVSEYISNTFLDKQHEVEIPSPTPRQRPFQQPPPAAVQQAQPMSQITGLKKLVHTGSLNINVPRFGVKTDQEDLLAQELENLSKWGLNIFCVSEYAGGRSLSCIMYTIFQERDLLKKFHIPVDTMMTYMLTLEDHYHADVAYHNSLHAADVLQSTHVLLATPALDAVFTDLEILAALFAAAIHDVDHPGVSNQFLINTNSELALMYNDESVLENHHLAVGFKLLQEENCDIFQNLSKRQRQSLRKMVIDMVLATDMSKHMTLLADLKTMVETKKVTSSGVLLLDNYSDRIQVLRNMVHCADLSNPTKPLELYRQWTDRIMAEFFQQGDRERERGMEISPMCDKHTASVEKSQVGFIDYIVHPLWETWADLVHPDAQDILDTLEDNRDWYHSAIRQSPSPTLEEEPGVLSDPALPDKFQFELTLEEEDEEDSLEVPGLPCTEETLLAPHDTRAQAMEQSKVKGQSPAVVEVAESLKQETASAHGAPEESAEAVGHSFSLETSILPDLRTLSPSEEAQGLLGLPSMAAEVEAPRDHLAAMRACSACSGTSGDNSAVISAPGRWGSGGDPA
Kind of experiment: cAMP response in yeast strain expressing PDE4A1. The format is cell-based, Murine. The source says:
Values represent the average and SD of two or three independent experiments. […] The strains used are as in FIG. 5A, together with strain CHP1141 (PDE8A). Values represent the average and SD of two or three independent experiments.
Thus, PDE inhibition can be indirectly quantitated by measuring the effect of a compound on cAMP levels in target yeast strains.

In experiment [2] the test system is PDE4A, PDE4B, PDE4D, PDE7A, PDE7B, PDE8A, PDE3A. Kind of experiment: Summary of PDE inhibitor profile. Further details: key: (1): Strong PDE7A inhibitor, weak to moderate PDE4A, 4B inhibitor; (2): Strong PDE7A and PDE4s (including PDE4D) inhibitor; (3): Strong PDE7A inhibitor. Conditions: overall classification, Table 18 footnotes.

The structures appear in SMILES notation.

T2 sequence (Q08499 388-715): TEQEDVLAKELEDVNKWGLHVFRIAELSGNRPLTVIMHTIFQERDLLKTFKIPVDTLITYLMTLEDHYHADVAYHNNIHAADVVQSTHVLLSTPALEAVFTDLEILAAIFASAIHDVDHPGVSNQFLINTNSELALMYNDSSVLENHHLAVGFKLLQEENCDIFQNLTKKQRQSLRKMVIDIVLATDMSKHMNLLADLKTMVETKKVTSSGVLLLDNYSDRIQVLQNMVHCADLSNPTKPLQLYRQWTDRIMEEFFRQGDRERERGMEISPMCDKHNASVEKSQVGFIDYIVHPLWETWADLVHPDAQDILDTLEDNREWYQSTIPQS

With `COc1c2ccoc2cc2oc(C)cc(=O)c12` [visnagin], in experiment [1], the “hit in high throughput screens (promotes 5FOA^R growth), in words” value is “identified”.
Same read-out and setting: with `Cc1cc2cc3c(C)cc(=O)oc3c(C)c2o1` [trioxsalen] the entry was “identified”.
In the case of `OCCN(CCO)c1nc(N2CCCCC2)c2nc(N(CCO)CCO)nc(N3CCCCC3)c2n1` [dipyridamole, Dipyridamole], on PDE8A, the “inhibition of PDE8A in yeast, in words” value is listed as “not able to be inhibited”.
`COc1c2occc2c(OC)c2c(=O)cc(C)oc12` [khellin]: the “hit in high throughput screens (promotes 5FOA^R growth), in words” value in experiment [1] was “identified”.
With `N#Cc1sc2sc(C#N)c(-c3ccco3)c2c1N` [BC30], the “PDE4D catalytic domain, 2 uM cpm” value at PDE4D2-CAT (2 uM compound) was 2583 cpm. The “In vitro activation of PDE4D catalytic domain, % activity” value at PDE4D2-CAT (2 micromolar compound, DMSO = 100) came out at 139%.
Consider `Cc1cc(C)nc(SCCS(=O)(=O)c2ccc(C(C)(C)C)cc2)n1` [Compound 26], for which the “cAMP Response (% rolipram), 4A1” value on PDE4A1 is recorded as 96.00 % rolipram.
With `COc1ccc2c(c1)C1(C)CCC(=O)CC1CC2` (single isomer, unassigned) [Compound 39], in experiment [2], the “PDE inhibitor profile (Table 18)” value is 39 (1).
